In PubChem BioAssay (NCI):
Where “and” joins values, the source holds several entries; their conditions need not be identical. Equal values may be shown once.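 Interpolation was linear, between the two tested concentrations surrounding the appropriate level; five concentrations were tested over 48 hours in 96-well plates. Abbreviation: GI50, concentration required for 50% inhibition of growth. The concentration for full growth arrest is given as TGI.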

Tests used:
Test in all cases: NCI anticancer screen, dose series, 48 h
M14 melanoma = test system: M14 melanoma
SR leukemia = test system: SR leukemia
HCT-15 colon = test system: HCT-15 colon
HOP-62 NSCLC = test system: HOP-62 NSCLC
SNB-19 CNS = test system: SNB-19 CNS
SNB-75 CNS = test system: SNB-75 CNS
HS 578T breast = test system: HS 578T breast
ACHN renal = test system: ACHN renal
EKVX NSCLC = test system: EKVX NSCLC
KM20L2 colon = test system: KM20L2 colon
SNB-78 CNS = test system: SNB-78 CNS
DLD-1 colon = test system: DLD-1 colon

Question: How did the TGI (M14 melanoma) turn out when `COc1ccc(S(=O)(=O)Nc2ccc(-c3csc(N4C(=O)/C(=C/c5cccs5)N=C4c4ccccc4)n3)cc2)cc1Cl` was run?
Answer: > 100 µM

Question: And the TGI (SR leukemia)?
Answer: > 100 µM

Question: And the TGI (HCT-15 colon)?
Answer: 70.6 µM

Question: And the TGI (HOP-62 NSCLC)?
Answer: 45.8 µM

Question: What about the TGI (SNB-19 CNS) of the same molecule?
Answer: > 100 µM

Question: And the TGI (SNB-75 CNS)?
Answer: > 100 µM

Question: And the TGI (HS 578T breast)?
Answer: 93.3 µM

Question: And the TGI (ACHN renal)?
Answer: > 100 µM

Question: Which results are given for `CCCCCCCCCC[N+](C)(C)C`?
Answer: GI50 (M14 melanoma): 1740 nM; TGI (M14 melanoma): 5.83 µM; GI50 (EKVX NSCLC): 3.66 µM; TGI (EKVX NSCLC): 30.5 µM; GI50 (SR leukemia): 1120 nM; TGI (SR leukemia): 3.43 µM; GI50 (HCT-15 colon): 2.49 µM; TGI (HCT-15 colon): 17.1 µM; GI50 (HOP-62 NSCLC): 1180 nM; TGI (HOP-62 NSCLC): 3.07 µM; GI50 (SNB-75 CNS): 1.26 µM; TGI (SNB-75 CNS): 3.69 µM; GI50 (HS 578T breast): 2.22 µM; TGI (HS 578T breast): 6.38 µM; GI50 (ACHN renal): 2390 nM; TGI (ACHN renal): 12.5 µM

Question: What does the source list for `COc1ccc(OCC(C)(C)O)cc1`?
Answer: TGI (EKVX NSCLC): > 100 µM; TGI (KM20L2 colon): > 100 µM; TGI (HCT-15 colon): > 100 µM; TGI (HOP-62 NSCLC): > 100 µM; TGI (SNB-78 CNS): > 100 µM; TGI (SNB-19 CNS): > 100 µM; TGI (SNB-75 CNS): > 86.9 µM; TGI (DLD-1 colon): > 100 µM

Question: What does the source list for `COc1ccc2c(c1)c(=O)c1c(NCCCN(C)C)ccc3ncn2c31`?
Answer: TGI (M14 melanoma): 12.9 µM; TGI (EKVX NSCLC): 27 µM; TGI (KM20L2 colon): 17.1 µM; TGI (SR leukemia): > 44.9 µM; TGI (HCT-15 colon): 14.7 µM; TGI (HOP-62 NSCLC): 15 µM; TGI (SNB-78 CNS): 23.5 µM; TGI (SNB-19 CNS): 20.5 µM; TGI (SNB-75 CNS): 19.8 µM; TGI (HS 578T breast): 29.3 µM; TGI (ACHN renal): 16.8 µM; TGI (DLD-1 colon): 17.8 µM

Question: What does the source list for `CCOC(=O)/C=C/c1c[nH]c(=O)[nH]c1=O`?
Answer: TGI (EKVX NSCLC): > 75 µM; TGI (KM20L2 colon): > 75 µM; TGI (HCT-15 colon): > 75 µM; TGI (HOP-62 NSCLC): > 75 µM; TGI (SNB-78 CNS): > 75 µM; TGI (SNB-19 CNS): > 75 µM; TGI (SNB-75 CNS): > 75 µM; TGI (DLD-1 colon): > 75 µM

Question: For `COC1C(OC(C)=O)CC(=O)OC(C)C/C=C/C=C\C(O)C(C)CC(CC=O)C1OC1OC(C)C(OC2CC(C)(O)C(OC(=O)CC(C)C)C(C)O2)C(N(C)C)C1O` (centres undefined), which TGI (M14 melanoma) is on record?
Answer: > 100 µM

Question: What about the TGI (SR leukemia) of the same molecule?
Answer: 69 µM and 38.7 µM

Question: What about the GI50 (HCT-15 colon) of the same molecule?
Answer: 36.4 µM and > 100 µM

Question: What about the TGI (HCT-15 colon) of the same molecule?
Answer: > 100 µM

Question: What about the TGI (HOP-62 NSCLC) of the same molecule?
Answer: > 100 µM

Question: And the TGI (SNB-19 CNS)?
Answer: > 100 µM

Question: What about the TGI (SNB-75 CNS) of the same molecule?
Answer: > 100 µM

Question: What about the GI50 (HS 578T breast) of the same molecule?
Answer: > 100 µM and 42 µM

Question: What about the TGI (HS 578T breast) of the same molecule?
Answer: > 100 µM

Question: And the TGI (ACHN renal)?
Answer: > 100 µM

Question: For `c1ccc(N2N=C3N(c4ccccc4)C2N3c2ccccc2)cc1`, which TGI (M14 melanoma) is on record?
Answer: 47.6 µM

Question: What about the TGI (EKVX NSCLC) of the same molecule?
Answer: > 100 µM

Question: What about the TGI (HCT-15 colon) of the same molecule?
Answer: > 100 µM

Question: And the TGI (HOP-62 NSCLC)?
Answer: > 100 µM

Question: What about the TGI (SNB-19 CNS) of the same molecule?
Answer: > 100 µM

Question: And the TGI (SNB-75 CNS)?
Answer: 64.5 µM

Question: What about the TGI (HS 578T breast) of the same molecule?
Answer: > 100 µM

Question: And the TGI (ACHN renal)?
Answer: > 100 µM

Question: What does the source list for `CCOC(=O)C1=C(C)N(C2OC(COC(C)=O)C(OC(C)=O)C(OC(C)=O)C2OC(C)=O)C(=O)NC1c1ccccc1` (centres undefined)?
Answer: TGI (M14 melanoma): > 100 µM; TGI (EKVX NSCLC): > 100 µM; TGI (KM20L2 colon): > 100 µM; TGI (SR leukemia): > 100 µM; TGI (HCT-15 colon): > 100 µM; TGI (HOP-62 NSCLC): > 100 µM; TGI (SNB-78 CNS): > 100 µM; TGI (SNB-19 CNS): > 100 µM; TGI (SNB-75 CNS): > 100 µM; TGI (ACHN renal): > 100 µM; TGI (DLD-1 colon): > 100 µM

Question: `COc1c2occc2cc2ccc(=O)oc12` was tested. Which TGI (M14 melanoma) did it give?
Answer: > 100 µM

Question: What about the GI50 (EKVX NSCLC) of the same molecule?
Answer: 96.9 µM

Question: And the TGI (EKVX NSCLC)?
Answer: > 100 µM

Question: What about the TGI (SR leukemia) of the same molecule?
Answer: > 100 µM

Question: What about the TGI (HCT-15 colon) of the same molecule?
Answer: > 100 µM

Question: And the TGI (HOP-62 NSCLC)?
Answer: > 100 µM

Question: And the TGI (SNB-19 CNS)?
Answer: > 100 µM

Question: What about the GI50 (SNB-75 CNS) of the same molecule?
Answer: 55.1 µM

Question: And the TGI (SNB-75 CNS)?
Answer: > 100 µM

Question: And the GI50 (HS 578T breast)?
Answer: > 100 µM

Question: And the TGI (HS 578T breast)?
Answer: > 100 µM

Question: What about the TGI (ACHN renal) of the same molecule?
Answer: > 100 µM

Question: `COc1ccc2c(c1)C=C(C(C)(C)C)NS2(=O)=O` was tested. Which TGI (M14 melanoma) did it give?
Answer: > 100 µM

Question: What about the TGI (EKVX NSCLC) of the same molecule?
Answer: > 100 µM

Question: What about the TGI (KM20L2 colon) of the same molecule?
Answer: > 100 µM

Question: What about the TGI (SR leukemia) of the same molecule?
Answer: > 100 µM

Question: And the TGI (HCT-15 colon)?
Answer: > 100 µM

Question: What about the TGI (HOP-62 NSCLC) of the same molecule?
Answer: > 100 µM

Question: What about the TGI (SNB-78 CNS) of the same molecule?
Answer: > 100 µM

Question: And the TGI (SNB-19 CNS)?
Answer: > 100 µM

Question: What about the TGI (SNB-75 CNS) of the same molecule?
Answer: > 100 µM

Question: What about the TGI (ACHN renal) of the same molecule?
Answer: > 100 µM

Question: And the TGI (DLD-1 colon)?
Answer: > 100 µM

Question: What does the source list for `C[C@]12CC/C(=N\O)C=C1CC[C@@H]1[C@@H]2CC[C@]2(C)C(=N/O)/C(=C/c3ccncc3)C[C@@H]12`?
Answer: TGI (M14 melanoma): 34 µM; TGI (EKVX NSCLC): > 100 µM; TGI (SR leukemia): 62.2 µM; TGI (HCT-15 colon): > 100 µM; TGI (HOP-62 NSCLC): > 100 µM; TGI (SNB-19 CNS): > 100 µM; TGI (SNB-75 CNS): > 100 µM; TGI (HS 578T breast): > 100 µM; TGI (ACHN renal): > 100 µM

Question: Which results are given for `CC1OC(OC2C[C@](O)(C(=O)CBr)Cc3c(O)c4c(c(O)c32)C(=O)c2ccccc2C4=O)C(F)C(O)C1O` (some centres undefined)?
Answer: TGI (M14 melanoma): 26.1 µM; TGI (EKVX NSCLC): > 100 µM; TGI (SR leukemia): 3.79 µM; TGI (HCT-15 colon): 21.6 µM; TGI (HOP-62 NSCLC): 66 µM; TGI (SNB-19 CNS): > 70.5 µM; TGI (SNB-75 CNS): 56.2 µM; TGI (HS 578T breast): > 73.4 µM; TGI (ACHN renal): 7.08 µM

Question: With `CC(=O)OCc1nnn2c1CCC2` as the molecule, how does the TGI (M14 melanoma) read?
Answer: > 100 µM

Question: And the TGI (EKVX NSCLC)?
Answer: > 100 µM

Question: And the TGI (KM20L2 colon)?
Answer: > 100 µM

Question: What about the TGI (SR leukemia) of the same molecule?
Answer: > 100 µM

Question: And the TGI (HCT-15 colon)?
Answer: > 100 µM

Question: What about the TGI (HOP-62 NSCLC) of the same molecule?
Answer: > 100 µM

Question: And the TGI (SNB-78 CNS)?
Answer: > 100 µM

Question: What about the TGI (SNB-75 CNS) of the same molecule?
Answer: > 100 µM

Question: What about the TGI (ACHN renal) of the same molecule?
Answer: > 100 µM

Question: What about the TGI (DLD-1 colon) of the same molecule?
Answer: > 100 µM

Question: How did the TGI (M14 melanoma) turn out when `CC(c1ccccc1)C(O)S(=O)(=O)O` (centres undefined) was run?
Answer: > 100 µM

Question: And the TGI (EKVX NSCLC)?
Answer: > 100 µM

Question: And the TGI (KM20L2 colon)?
Answer: > 100 µM

Question: And the TGI (HCT-15 colon)?
Answer: > 100 µM

Question: And the TGI (SNB-78 CNS)?
Answer: > 100 µM

Question: What about the TGI (SNB-19 CNS) of the same molecule?
Answer: > 100 µM

Question: What about the TGI (SNB-75 CNS) of the same molecule?
Answer: > 100 µM

Question: And the TGI (ACHN renal)?
Answer: > 100 µM

Question: Which results are given for `CCCCn1c(C)c2c(c1C)C(=O)N(CCN1CCN(c3ccccc3Cl)CC1)C2=O`?
Answer: TGI (M14 melanoma): 51.5 µM; TGI (EKVX NSCLC): > 100 µM; TGI (SR leukemia): 58.7 µM; TGI (HCT-15 colon): > 100 µM; TGI (HOP-62 NSCLC): 93.3 µM; TGI (SNB-19 CNS): > 100 µM; TGI (SNB-75 CNS): 90.2 µM; TGI (HS 578T breast): > 100 µM; TGI (ACHN renal): > 100 µM
